Columns and labels:
HIV [1] = assay: anti-HIV activity, inhibition of HIV-induced cytopathicity in MT-4 cells (MTT method); assay type: cell-based; conditions: for EC50: HIV-infected MT-4 cells, MOI 0.01, 5 days, 37° C.; for S.I. (CC50/EC50): MT-4 cells, ratio of CC50 to EC50, 7200 min
Procedure: (§1) A test compound having various concentrations were placed in a 96-well microtiter plate along with HIV-infected MT-4 cells (2.5×10^4 /well, MOI (multiplicity of infection): 0.01) immediately after infection thereof. In order to ascertain the cytotoxicty of the test compound with respect to MT-4 cells, mock-infected (non-infected) cells were cultured in an identical manner along with the test compound of various concentrations. After incubating for 5 days at 37° C. in a CO2 atmosphere, the number of living cells were determined by using MTT method. The anti-HIV activity was evaluated with the method written by R. Pauwels, et al. (R. Pauwels, et al., J. Virol Methods, 20, 309 to 321 (1988)).
The anti-HIV activity is shown in terms of EC50 (50% effective concentration) that is the concentration of a compound which inhibits 50% of HIV-induced cytopathicity in MT-4 cells, and the cytotoxity is shown in terms of CC50 (cytotoxic concentration) that is the concentration of a compound which reduces 50% of viability of mock-infected MT-4 cells. Selectivity Index (S.I.) is expressed by the ratio of CC50 to EC50 (CC50 /EC50).

MT-4 cells = assay: cytotoxicity in mock-infected MT-4 cells (MTT method); assay type: cell-based
Procedure: as §1, with “method.” for “method. The anti-HIV activity was evaluated with the method written by R. Pauwels, et al. (R. Pauwels, et al., J. Virol Methods, 20, 309 to 321 (1988)).”
Selectivity Index (S.I.) is expressed by the ratio of CC50 to EC50 (CC50 /EC50).

rabbit blood = assay: effects on blood clotting, whole blood clotting time; conditions: for clotting time: rabbit whole blood
Procedure: Sodium heparin (Kodama) used as positive control was diluted with saline at the concentration of 120 U/ml.
Japan White rabbits (supplier: Kitayama Labes), 4 months old, were used for this study.
Cardiopuncture was performed in a rabbit, and at when blood was started to be flowed into the syringe, the timer was made to start. The whole blood collected was carefully flowed into double glass tubes incubated. After putting the samples calmly for 3 minutes, the first tube was tilted gently every 30 seconds and the current of blood was observed. When blood in the first tube was clotted, the same operation was performed in the second tube. When the blood was clotted in the second tube, the timer was stopped, and this end point was recorded as whole blood clotting time.

HIV [2] = assay: anti-HIV activity of serum after intravenous administration to mice; assay type: in vivo; conditions: for reciprocal number of concentration of the compound at 50% cell viability: mouse serum, 32 mg/kg
Procedure: The effects of Compound 6 and dextran sulfate in vivo experiment were studied by duration of the activity using mouse.
Compound 6 were dissolved with saline at the concentration of 32 mg/10 ml. Dextran sulfate (Control compound: M.W=8000: Sigma) were dissolved with it at the concentration of 80 mg/10 ml.
Mouse (Crj:CD-1(ICR)) (supplier: Charles River Japan, Inc.), six weeks old were used for this study.
Four groups (for 1, 4, 6 and 12 hours) of mice (one group: three mice) were used for the in vivo experiments of the Compound 6.
The twelve mice were given an intravenous injection of the compound (in the tail vein; Dose 32 mg/kg).
Three groups (for 20, 40 and 60 minutes) of mice (one group: two mice) were used for dextran sulfate such a method as described in Compound 6 (Dose 80 mg/kg). At decided times after injection, the blood was collected and serum was separated by centrifugation at low speed.
The serum samples were stored at -80° C. until assayed. Each serum sample was diluted with culture medium to evaluate the effective concentration (the maximum concentration was set up to 10%). The method of this anti-HIV activity evaluation was the same one as described in EXAMPLE 49.
(*)Various concentration of the serum solutions (diluted with the medium
and the maximum concentration is 10%) were used for evaluation of the
shown. That is why the higher the reciprocal number, the higher the […]

[3] = mock-infected MT-4 cells, 5 days, 37° C., 7200 min
[4] = mock-infected MT-4 cells, 5 days, 37° C.

Sulfated dl-α-tocopheryl O-n-octanoyl-β-D-laminaripentaoside [Compound 34]
EC50 (HIV [1]): 16.0 µg/mL
S.I. (CC50/EC50) (HIV [1]): 30
CC50 (MT-4 cells; [3]): 472 µg/mL

Sulfated n-dodecyl O-benzoyl-β-D-laminaripentaoside [Compound 2]
EC50 (HIV [1]): 0.4 µg/mL
S.I. (CC50/EC50) (HIV [1]): > 2,500
CC50 (MT-4 cells; [3]): > 1,000 μg/ml

Sulfated n-dodecyl O-4-fluorobenzoyl-β-D-laminaripentaoside [Compound 4]
EC50 (HIV [1]): 1.7 µg/mL
S.I. (CC50/EC50) (HIV [1]): 509
CC50 (MT-4 cells; [3]): 866 µg/mL

Heparin [reference compound]
clotting time (rabbit blood; 120 U/ml, positive control): > 60 min

Sulfated dl-α-tocopheryl O-n-octanoyl-β-D-laminaripentaoside [Compound 33]
EC50 (HIV [1]): 0.64 µg/mL
S.I. (CC50/EC50) (HIV [1]): 998
CC50 (MT-4 cells; [3]): 639 µg/mL

Sulfated 4-n-octyloxyphenyl O-benzoyl-β-D-laminaripentaoside [Compound 11]
EC50 (HIV [1]): 4.7 µg/mL
S.I. (CC50/EC50) (HIV [1]): 119
CC50 (MT-4 cells; [4]): 557 µg/mL

Sulfated 4-n-octylphenyl O-4-fluorobenzoyl-β-D-laminaripentaoside [Compound 9]
EC50 (HIV [1]): 14.1 µg/mL
S.I. (CC50/EC50) (HIV [1]): 35
CC50 (MT-4 cells; [4]): 496 µg/mL

Sulfated dl-α-tocopheryl O-n-butyryl-β-D-galactosyl-(1→4)-β-D-galactosyl-(1→4)-β-D-glucoside [Compound 42]
EC50 (HIV [1]): 3.6 µg/mL
S.I. (CC50/EC50) (HIV [1]): 174
CC50 (MT-4 cells; [4]): 627 µg/mL

Sulfated dl-α-tocopheryl O-n-butyryl-β-D-galactosyl-(1→4)-β-D-galactosyl-(1→4)-β-D-glucoside [Compound 41]
EC50 (HIV [1]): 5.4 µg/mL
S.I. (CC50/EC50) (HIV [1]): 109
CC50 (MT-4 cells; [3]): 586 µg/mL

Sulfated 4-t-octylphenyl O-n-octanoyl-β-D-laminaripentaoside [Compound 27]
EC50 (HIV [1]): 0.63 µg/mL
S.I. (CC50/EC50) (HIV [1]): > 1,587
CC50 (MT-4 cells; human, mt-4 cells, 120 h): > 1,000 μg/ml

Sulfated dl-α-tocopheryl O-n-octanoyl-β-D-laminaripentaoside [Compound 35]
EC50 (HIV [1]): 20.2 µg/mL
S.I. (CC50/EC50) (HIV [1]): 26
CC50 (MT-4 cells; [3]): 519 µg/mL

Sulfated 4-n-heptylphenyl O-benzoyl-β-D-galactosyl-(1→4)-β-D-galactosyl-(1→4)-β-D-glucoside [Compound 18]
EC50 (HIV [1]): 14.5 µg/mL
S.I. (CC50/EC50) (HIV [1]): 47
CC50 (MT-4 cells; [4]): 634 µg/mL

Sulfated dl-α-tocopheryl O-n-dodecanoyl-β-D-laminaripentaoside [Compound 39]
EC50 (HIV [1]): 15.3 µg/mL
S.I. (CC50/EC50) (HIV [1]): 38
CC50 (MT-4 cells; [3]): 586 µg/mL

Sulfated dl-α-tocopheryl O-benzoyl-β-D-laminaripentaoside [Compound 44]
EC50 (HIV [1]): 0.52 µg/mL
S.I. (CC50/EC50) (HIV [1]): 1,317
CC50 (MT-4 cells; [3]): 685 µg/mL

Sulfated dl-α-tocopheryl O-n-dodecanoyl-β-D-laminaripentaoside [Compound 36]
EC50 (HIV [1]): 3.9 µg/mL
S.I. (CC50/EC50) (HIV [1]): 83
CC50 (MT-4 cells; [3]): 323 µg/mL

Sulfated dl-α-tocopheryl O-benzoyl-β-D-laminaripentaoside [Compound 46]
EC50 (HIV [1]): 3.9 µg/mL
S.I. (CC50/EC50) (HIV [1]): 41
CC50 (MT-4 cells; [3]): 160 µg/mL

Sulfated 4-n-octyloxyphenyl O-octanoyl-β-D-laminaripentaoside [Compound 26]
EC50 (HIV [1]): 1.7 µg/mL
S.I. (CC50/EC50) (HIV [1]): > 588
CC50 (MT-4 cells; [4]): > 1,000 μg/ml

Sulfated dl-α-tocopheryl O-2,4-difluorobenzoyl-β-D-galactosyl-(1→4)-β-D-galactosyl-(1→4)-β-D-glucoside [Compound 43]
EC50 (HIV [1]): 3.3 µg/mL
S.I. (CC50/EC50) (HIV [1]): 195
CC50 (MT-4 cells; [4]): 644 µg/mL

Sulfated 4-t-octylphenyl O-benzoyl-β-D-laminaripentaoside [Compound 14]
EC50 (HIV [1]): 16.4 µg/mL
S.I. (CC50/EC50) (HIV [1]): 119
CC50 (MT-4 cells; [4]): 557 µg/mL

Sulfated 4-n-octyloxyphenyl O-4-fluorobenzoyl-β-D-laminaripentaoside [Compound 12]
EC50 (HIV [1]): 16.1 µg/mL
S.I. (CC50/EC50) (HIV [1]): 33
CC50 (MT-4 cells; [4]): 530 µg/mL

Sulfated n-dodecyl O-2,4-difluorobenzoyl-β-D-laminaripentaoside [Compound 6]
EC50 (HIV [1]): 1.8 µg/mL
S.I. (CC50/EC50) (HIV [1]): > 556
CC50 (MT-4 cells; [4]): > 1,000 μg/ml
comparing strength of effects on blood clotting (rabbit blood; at the concentration of more than 0.1%): dextran sulfate>1>6
clotting time (rabbit blood; 0.01%): 7.4 ± 0.6 min
clotting time (rabbit blood; 0.1%): 7.4 ± 0.6 min
clotting time (rabbit blood; 1.0%): 21.1 ± 1.7 min
reciprocal number of concentration of the compound at 50% cell viability (HIV [2]; 1 hour after i.v. injection): 145
reciprocal number of concentration of the compound at 50% cell viability (HIV [2]; 4 hours after i.v. injection): 94
reciprocal number of concentration of the compound at 50% cell viability (HIV [2]; 6 hours after i.v. injection): 60
reciprocal number of concentration of the compound at 50% cell viability (HIV [2]; 12 hours after i.v. injection): 48
detection/duration of activity in serum (HIV [2]; mouse, i.v., Compound 6 32 mg/kg up to 12 hours, dextran sulfate 80 mg/kg up to 60 min): detected at a high concentration

Sulfated dl-α-tocopheryl O-n-dodecanoyl-β-D-laminaripentaoside [Compound 37]
EC50 (HIV [1]): 25.1 µg/mL
S.I. (CC50/EC50) (HIV [1]): 3
CC50 (MT-4 cells; [3]): 77.4 µg/mL

Sulfated n-dodecyl O-4-fluorobenzoyl-β-D-laminaripentaoside [Compound 5]
EC50 (HIV [1]): 1.3 µg/mL
S.I. (CC50/EC50) (HIV [1]): 758
CC50 (MT-4 cells; [3]): 986 µg/mL

Sulfated n-dodecyl O-2,4-difluorobenzoyl-β-D-laminaripentaoside [Compound 7]
EC50 (HIV [1]): 2.1 µg/mL
S.I. (CC50/EC50) (HIV [1]): > 476
CC50 (MT-4 cells; [4]): > 1,000 μg/ml

Sulfated n-dodecyl O-4-fluorobenzoyl-β-D-laminaripentaoside [Compound 3]
EC50 (HIV [1]): 2.0 µg/mL
S.I. (CC50/EC50) (HIV [1]): 482
CC50 (MT-4 cells; human, mt-4 cells, 120 h): 964 µg/mL

Sulfated 4-t-octylphenyl O-benzoyl-β-D-galactosyl-(1→4)-β-D-galactosyl-(1→4)-β-D-glucoside [Compound 17]
EC50 (HIV [1]): 76.3 µg/mL
S.I. (CC50/EC50) (HIV [1]): 6
CC50 (MT-4 cells; [4]): 484 µg/mL

Sulfated dl-α-tocopheryl O-n-butyryl-β-D-laminaripentaoside [Compound 32]
EC50 (HIV [1]): 6.4 µg/mL
S.I. (CC50/EC50) (HIV [1]): 18
CC50 (MT-4 cells; [3]): 115 µg/mL

Sulfated dl-α-tocopheryl O-n-docosanoyl-β-D-laminaripentaoside [Compound 40]
EC50 (HIV [1]): 20.6 µg/mL
S.I. (CC50/EC50) (HIV [1]): 27
CC50 (MT-4 cells; [4]): 546 µg/mL

Sulfated dl-α-tocopheryl O-benzoyl-β-D-laminaripentaoside [Compound 45]
EC50 (HIV [1]): 1.8 µg/mL
S.I. (CC50/EC50) (HIV [1]): 357
CC50 (MT-4 cells; [3]): 642 µg/mL

Sulfated dl-α-tocopheryl O-n-dodecanoyl-β-D-laminaripentaoside [Compound 38]
EC50 (HIV [1]): 18.7 µg/mL
S.I. (CC50/EC50) (HIV [1]): 4
CC50 (MT-4 cells; [3]): 81.1 µg/mL

Sulfated 4-n-octylphenyl O-benzoyl-β-D-laminaripentaoside [Compound 8]
EC50 (HIV [1]): 6.8 µg/mL
S.I. (CC50/EC50) (HIV [1]): 82
CC50 (MT-4 cells; [4]): 556 µg/mL

Sulfated dl-α-tocopheryl O-n-butyryl-β-D-laminaripentaoside [Compound 30]
EC50 (HIV [1]): 0.59 µg/mL
S.I. (CC50/EC50) (HIV [1]): 1,124
CC50 (MT-4 cells; [4]): 663 µg/mL

Sulfated dl-α-tocopheryl O-n-butyryl-β-D-laminaripentaoside [Compound 31]
EC50 (HIV [1]): 1.1 µg/mL
S.I. (CC50/EC50) (HIV [1]): 195
CC50 (MT-4 cells; [3]): 214 µg/mL

From patent US5459257A, “Sulfated oligoglycoside acylate and antiviral agent containing the same as active ingredient” (priority 1993, dated 1995)
